Laboratory results as given in patent US10239832B2, “N-(1-hydroxy-3-(pyrrolidinyl)propan-2-yl)pyrrolidine-3-carboxamide derivatives as glucosylceramide synthase inhibitors” (BIOMARIN PHARMACEUTICAL INC., priority 2013, dated 2019).

What follows are compounds tested against T1, GCS (Canis lupus familiaris, UniProt A0A8I3MXG6) (assay: GCS enzymatic assay (MDCK cell lysate, NBD-ceramide to glucosylceramide, LC/MS)). Details: Table 2; class symbols A, B, C; the table does not say which of the assays; read-out: Data Range (IC50 values).
T1 construct: endogenous in cells; host or cells: MDCK (Madin-Darby canine kidney) cells, whole-cell lysate
T1 sequence (A0A8I3MXG6 1-394): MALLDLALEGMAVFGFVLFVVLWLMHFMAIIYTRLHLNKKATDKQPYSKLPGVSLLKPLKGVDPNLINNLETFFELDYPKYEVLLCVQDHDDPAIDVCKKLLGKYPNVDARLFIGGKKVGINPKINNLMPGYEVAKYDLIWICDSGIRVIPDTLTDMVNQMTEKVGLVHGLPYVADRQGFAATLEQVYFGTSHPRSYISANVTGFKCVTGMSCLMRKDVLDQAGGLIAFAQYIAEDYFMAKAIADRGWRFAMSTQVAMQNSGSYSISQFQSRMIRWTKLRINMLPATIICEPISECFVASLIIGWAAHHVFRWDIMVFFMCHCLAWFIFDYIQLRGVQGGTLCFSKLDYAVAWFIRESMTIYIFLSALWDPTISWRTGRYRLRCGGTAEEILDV
Assay type: biochemical, canine
Procedure: This assay was modified based on the study by Larsen et al. (J. Lipid Res. 2011, 53, 282). Madin-Darby canine kidney (MDCK) cell lysate was prepared using M-PER Mammalian Protein Extraction Reagent (Thermal Scientific) in the presence of a protease inhibitor cocktail (Roche). Protein concentration was determined using BCA assay kit (Pierce). […] 0.1% DMSO was used as mock treatment or control. The reaction was terminated by adding 100 μL acetonitrile solution and subjected to LC/MS analysis.
The quantitative analysis of NBD-Ceramide and glucosylceramide was performed on a Shimadzu ultra-fast liquid chromatography (Shimadzu, Japan) coupled with API 4000 triple quadrupole mass spectrometer (Applied Biosystems, Concord, Ontario, Canada). Sample separation was conducted on a Waters Xbridge™ BEH130 C18, 100 mm×4.6 mm i.d, 3.5 μm (Milford, Mass., USA). The mobile phase consisted of water and acetonitrile supplemented with 0.1% formic acid (v/v). The flow rate was 1.0 mL/min. The initial mobile phase was 20% acetonitrile and was ramped in a linear fashion to 50% acetonitrile in 0.4 min. From 0.4 to 1.5 min, the gradient was ramped to 98% acetonitrile, and then was held at […] until 8.0 min. Acetonitrile was reset to 20% in 1.5 min, and maintained until 10.0 min. The total run time was 10.0 min. The MS/MS detection was performed in ESI positive mode. The mass transition of NBD-Ceramide was m/z 576.36→558.40 under the collision energy of 15 V, and the mass transition of glucosylceramide was m/z 738.35→558.40 under 21V collision energy. The cell lysate was diluted with equal volume of acetonitrile. Aliquots of 50 μL diluted samples were added to 1.5 mL tubes, and 100 μL of acetonitrile containing internal standard (100 ng/mL tolbutamide) were added for protein precipitation. The mixture were vortexed and then centrifuged at 13000 rpm for 10 min. 70 μL of supernatant were mixed with 140 μL of H2O and the final solution were injected for LC/MS/MS analysis and IC50's and/or percent inhibitions calculated.

Structure (SMILES)	IC50
O=C(N[C@H](CN1CCCC1)[C@H](O)c1ccc(OC2CC2)c(Cl)c1)C1CCN(c2ccc(Cl)cc2)C1 (stereo in doubt) [Compound 3, (S)-N-((1R,2R)-1-(3-chloro-4-cyclopropoxyphenyl)-1-hydroxy-3-(pyrrolidin-1-yl)propan-2-yl)-1-(4-chlorophenyl)pyrrolidine-3-carboxamide]	0.001 to 0.03 µM
O=C(N[C@H](CN1CCCC1)[C@H](O)c1ccc2c(c1)OCCO2)C1CCN(c2ccc(Cl)cc2Cl)C1 (stereo in doubt) [Compound 12, (R)-1-(2,4-dichlorophenyl)-N-((1R,2R)-1-(2,3-dihydrobenzo[b][1,4]dioxin-6-yl)-1-hydroxy-3-(pyrrolidin-1-yl)propan-2-yl)pyrrolidine-3-carboxamide]	0.001 to 0.03 µM
O=C(N[C@H](CN1CCCC1)[C@H](O)c1ccc2c(c1)OCCO2)C1CCN(c2ccc3cc(F)ccc3c2)C1 (stereo in doubt) [Compound 14, (S)-N-((1R,2R)-1-(2,3-dihydrobenzo[b][1,4]dioxin-6-yl)-1-hydroxy-3-(pyrrolidin-1-yl)propan-2-yl)-1-(6-fluoronaphthalen-2-yl)pyrrolidine-3-carboxamide]	0.001 to 0.03 µM
N#Cc1ccc(N2CCC(C(=O)N[C@H](CN3CCCC3)C(O)c3ccc(OC4CC4)c(Cl)c3)C2)cc1 (stereo in doubt) [Compound 152C, (R)-N-((1S,2R)-1-(3-chloro-4-cyclopropoxyphenyl)-1-hydroxy-3-(pyrrolidin-1-yl)propan-2-yl)-1-(4-cyanophenyl)pyrrolidine-3-carboxamide]	0.03 to 0.1 µM
O=C(N[C@H](CN1CCCC1)[C@H](O)c1ccc(OC2CC2)c(Cl)c1)C1CCN(c2ccc(Cl)cc2)C1 (stereo partly drawn) [Compound 3A, N-((1R,2R)-1-(3-chloro-4-cyclopropoxyphenyl)-1-hydroxy-3-(pyrrolidin-1-yl)propan-2-yl)-1-(4-chlorophenyl)pyrrolidine-3-carboxamide]	0.03 to 0.1 µM

The next lines start with the values.

IC50	Structure (SMILES)
0.001 to 0.03 µM	O=C(N[C@H](CN1CCCC1)[C@H](O)c1ccc2c(c1)OCCO2)[C@@H]1CCN(c2ccc(Cl)cc2)C1 [Compound 1, (R)-1-(4-chlorophenyl)-N-((1R,2R)-1-(2,3-dihydrobenzo[b][1,4]dioxin-6-yl)-1-hydroxy-3-(pyrrolidin-1-yl)propan-2-yl)pyrrolidine-3-carboxamide]
0.001 to 0.03 µM	O=C(N[C@H](CN1CCCC1)[C@H](O)c1ccc2c(c1)OCCO2)C1CCN(c2ccc(Cl)cc2)C1 (stereo partly drawn) [Compound 1C, 1-(4-chlorophenyl)-N-((1R,2R)-1-(2,3-dihydrobenzo[b][1,4]dioxin-6-yl)-1-hydroxy-3-(pyrrolidin-1-yl)propan-2-yl)pyrrolidine-3-carboxamide]
0.03 to 0.1 µM	O=C(N[C@H](CN1CCCC1)[C@H](O)c1ccc2c(c1)OCCO2)[C@H]1CCN(c2ccc(Cl)cc2)C1 [Compound 1D, (S)-1-(4-chlorophenyl)-N-((1R,2R)-1-(2,3-dihydrobenzo[b][1,4]dioxin-6-yl)-1-hydroxy-3-(pyrrolidin-1-yl)propan-2-yl)pyrrolidine-3-carboxamide]
0.001 to 0.03 µM	O=C(N[C@H](CN1CCCC1)[C@H](O)c1cc(F)c2c(c1)OCCO2)[C@@H]1CCN(c2ccc(Cl)cc2)C1 [Compound 2, (R)-1-(4-chlorophenyl)-N-((1R,2R)-1-(8-fluoro-2,3-dihydrobenzo[b][1,4]dioxin-6-yl)-1-hydroxy-3-(pyrrolidin-1-yl)propan-2-yl)pyrrolidine-3-carboxamide]
0.001 to 0.03 µM	O=C(N[C@H](CN1CCCC1)[C@H](O)c1cc(F)c2c(c1)OCCO2)C1CCN(c2ccc(Cl)cc2)C1 (stereo partly drawn) [Compound 2A, 1-(4-chlorophenyl)-N-((1R,2R)-1-(8-fluoro-2,3-dihydrobenzo[b][1,4]dioxin-6-yl)-1-hydroxy-3-(pyrrolidin-1-yl)propan-2-yl)pyrrolidine-3-carboxamide]

Same assay, conditions: Table 2; class symbols D, E, F, NA (not active); the table does not say which of the assays

Structure (SMILES)	Data Range (% inhibition)
O=C(N[C@H](CN1CCCC1)[C@H](O)c1ccc(OC2CC2)c(Cl)c1)C1CCN(c2ccc(Cl)cc2)C1 (stereo in doubt) [Compound 3B, (R)-N-((1R,2R)-1-(3-chloro-4-cyclopropoxyphenyl)-1-hydroxy-3-(pyrrolidin-1-yl)propan-2-yl)-1-(4-chlorophenyl)pyrrolidine-3-carboxamide]	F (1-49% (or less than 50%))
O=C(N[C@H](CN1CCCC1)[C@H](O)c1ccc2c(c1)OCCO2)C1CCN(c2ccc3cc(F)ccc3c2)C1 (stereo in doubt) [Compound 14D, (R)-N-((1R,2R)-1-(2,3-dihydrobenzo[b][1,4]dioxin-6-yl)-1-hydroxy-3-(pyrrolidin-1-yl)propan-2-yl)-1-(6-fluoronaphthalen-2-yl)pyrrolidine-3-carboxamide]	F (1-49% (or less than 50%))
CC(C)Oc1ccc(C(O)[C@@H](CN2CCCC2)NC(=O)[C@H]2CCN(c3ccc(F)cc3)C2)cn1 (stereo in doubt) [Compound 31B, (S)-1-(4-fluorophenyl)-N-((1S,2R)-1-hydroxy-1-(6-isopropoxypyridin-3-yl)-3-(pyrrolidin-1-yl)propan-2-yl)pyrrolidine-3-carboxamide]	E (50-74% (or less than 75%))
O=C(NC(CN1CCCC1)[C@H](O)c1cc(F)c2c(c1)OCCO2)[C@H]1CCN(c2ccc3ccccc3n2)C1 (stereo in doubt) [Compound 68C, (S)-N-((1R,2S)-1-(8-fluoro-2,3-dihydrobenzo[b][1,4]dioxin-6-yl)-1-hydroxy-3-(pyrrolidin-1-yl)propan-2-yl)-1-(quinolin-2-yl)pyrrolidine-3-carboxamide]	F (1-49% (or less than 50%))
O=C(N[C@H](CN1CCCC1)[C@H](O)c1ccc2c(c1)OCCO2)[C@@H]1CCN(CC2(O)CCOCC2)C1 [Compound 5, (R)-N-((1R,2R)-1-(2,3-dihydrobenzo[b][1,4]dioxin-6-yl)-1-hydroxy-3-(pyrrolidin-1-yl)propan-2-yl)-1-((4-hydroxytetrahydro-2H-pyran-4-yl)methyl)pyrrolidine-3-carboxamide]	F (1-49% (or less than 50%))
O=C(N[C@H](CN1CCCC1)[C@H](O)c1ccc2c(c1)OCCO2)C1CCN(CC2(O)CCOCC2)C1 (stereo partly drawn) [Compound 5D, N-((1R,2R)-1-(2,3-dihydrobenzo[b][1,4]dioxin-6-yl)-1-hydroxy-3-(pyrrolidin-1-yl)propan-2-yl)-1-((4-hydroxytetrahydro-2H-pyran-4-yl)methyl)pyrrolidine-3-carboxamide]	F (1-49% (or less than 50%))

Continued, values first:

Data Range (% inhibition)	Structure (SMILES)
D (75-100%)	O=C(N[C@H](CN1CCCC1)[C@H](O)c1ccc2c(c1)OCCO2)C1CCN(c2ccc(Cl)c(Cl)c2)C1 (stereo in doubt) [Compound 8, (R)-1-(3,4-dichlorophenyl)-N-((1R,2R)-1-(2,3-dihydrobenzo[b][1,4]dioxin-6-yl)-1-hydroxy-3-(pyrrolidin-1-yl)propan-2-yl)pyrrolidine-3-carboxamide]
E (50-74% (or less than 75%))	O=C(N[C@H](CN1CCCC1)[C@H](O)c1ccc2c(c1)OCCO2)C1CCN(c2ccc(Cl)c(Cl)c2)C1 (stereo in doubt) [Compound 8D, (S)-1-(3,4-dichlorophenyl)-N-((1R,2R)-1-(2,3-dihydrobenzo[b][1,4]dioxin-6-yl)-1-hydroxy-3-(pyrrolidin-1-yl)propan-2-yl)pyrrolidine-3-carboxamide]
F (1-49% (or less than 50%))	O=C(N[C@H](CN1CCCC1)[C@H](O)c1ccc2c(c1)OCCO2)C1CCN(c2ccc(Cl)cc2Cl)C1 (stereo in doubt) [Compound 12D, (S)-1-(2,4-dichlorophenyl)-N-((1R,2R)-1-(2,3-dihydrobenzo[b][1,4]dioxin-6-yl)-1-hydroxy-3-(pyrrolidin-1-yl)propan-2-yl)pyrrolidine-3-carboxamide]
F (1-49% (or less than 50%))	O=C(N[C@H](CN1CCCC1)[C@H](O)c1cc(F)c2c(c1)OCCO2)[C@H]1CCN(c2ccc(Cl)cc2)C1 [Compound 2B, (S)-1-(4-chlorophenyl)-N-((1R,2R)-1-(8-fluoro-2,3-dihydrobenzo[b][1,4]dioxin-6-yl)-1-hydroxy-3-(pyrrolidin-1-yl)propan-2-yl)pyrrolidine-3-carboxamide]
